Data: US8518700B2, “Composition for reprogramming somatic cells to generate induced pluripotent stem cells, comprising Bmi1 and low molecular weight substance, and method for generating induced pluripotent stem cells using the same” (Korea University Research and Business Foundation, priority 2010, dated 2013)

Experiments:
Type in all cases: cell-based
[1] = system: Bmi1-transduced mouse somatic cells (Oct4-positive cells); assay: Reprogramming of Oct4-positive Bmi1-transduced mouse somatic cells into iPS cells by treatment with low molecular weight substances; details: 0.5 μM PD0325901 and 3 μM CHIR99021 together; culture conditions of mouse embryonic stem cells
Experimental: (§1) Mouse somatic cells, in detail, mouse fibroblasts were employed to generate embryonic stem cell-like cells. Embryos were taken from CF1 strain mice on embryonic day 13.5. Cells were cultured in DMEM (high glucose, w/o sodium pyruvate) supplemented with 10% FBS (Fetal bovine serum), 0.1 mM non-essential amino acid, 1% penicillin/streptomycin and 0.1 mM β-mercaptoethanol in tissue culture flasks, after which fibroblasts at the 3rd passage were seeded at a density of 2×10^5 cells/well into 6-well plates.
(§2) For use in gene transfer, retrovirus particles were prepared from the PT67 packaging cell line. In this context, a pBabe puro Bmi1 (from Dr. G. P. Dimri, Evanston Northwestern Healthcare Research Institute, Feinberg School of Medicine, Northwestern University, Evanston, Ill. 60201, USA), constructed by inserting a human Bmi1 gene (NCBI accession No. L13689) into a pBabe puro vector, was transfected into a PT67 packaging cell line (Clontech) with the aid of Turbofect (Fermentas), followed by drug selection with puromycine (3 μg/ml, BD bioscience). The PT67 packaging cell line allowed the production of high-titer viruses capable of infecting a broad range of mammalian host cells.
(§3) The expression of each gene was monitored with RT-PCR. […]

[2] = system: Bmi1-transduced mouse somatic cells (neurosphere-like cells); assay: Reprogramming of neurosphere-like cells from Bmi1-transduced mouse somatic cells (EGF-free neural stem cell condition) into iPS cells; details: 1 μM BIX01294 and 0.5 μM RG108 together; one week; condition used for mouse embryonic stem cells
Experimental: as §1, §2, §3

[3] = system: Bmi1-transduced mouse somatic cells (neurosphere-like cells); assay: Reprogramming of neurosphere-like cells from Bmi1-transduced mouse somatic cells (neural stem cell condition with bFGF and EGF) into iPS cells; details: 2 mM VPA; one week; condition used for mouse embryonic stem cells
Experimental: as §1, §2, §3

Compound | Reprogramming into iPS cells (BC-iPS 1) [1] | Reprogramming into iPS cells (BC-iPS 2) [2] | also measured
Cc1c[nH]c(-c2cnc(NCCNc3ccc(C#N)cn3)nc2-c2ccc(Cl)cc2Cl)n1 [CHIR99021] | establish induced stem cells |  | 
O=C(O)[C@H](Cc1c[nH]c2ccccc12)N1C(=O)c2ccccc2C1=O [RG108, N-Phthalyl-L-tryptophan] |  | establish iPS cells | 
O=C(NOC[C@H](O)CO)c1ccc(F)c(F)c1Nc1ccc(I)cc1F [PD0325901] | establish induced stem cells |  | 
COc1cc2nc(N3CCCN(C)CC3)nc(NC3CCN(Cc4ccccc4)CC3)c2cc1OC [BIX01294, 2-(Hexahydro-4-methyl-1H-1,4-diazepin-1-yl)-6,7-dimethoxy-N-[1-(phenylmethyl)-4-piperidinyl]4-quinazolinamine] |  | establish iPS cells | 
CCCC(CCC)C(=O)O [VPA, 2-propylenepentanoic acid] |  |  | Reprogramming into iPS cells [3]: iPS cells were established
